Measured values reported in paper PMC6152678, “In Vitro Comparative Study of the Inhibitory Effects of Mangiferin and Its Aglycone Norathyriol towards UDP-Glucuronosyl Transferase (UGT) Isoforms” (Molecules : A Journal of Synthetic Chemistry and Natural …, 2017).

Key:
UGT1A6 = target: T1, UGT1A6 (Homo sapiens, UniProt P19224); assay: Inhibition of recombinant UGT-catalyzed 4-MU glucuronidation; assay type: biochemical; details: pH 7.4, probe 4-methylumbelliferone (4-MU), 110 μM, 100 μM compound, 4-MU probe substrate, negative = activation
T1 construct: purchased BD Gentest Corp. (Woburn, MA, USA); host or cells: baculovirus-infected insect cells
T1 sequence (P19224 27-532): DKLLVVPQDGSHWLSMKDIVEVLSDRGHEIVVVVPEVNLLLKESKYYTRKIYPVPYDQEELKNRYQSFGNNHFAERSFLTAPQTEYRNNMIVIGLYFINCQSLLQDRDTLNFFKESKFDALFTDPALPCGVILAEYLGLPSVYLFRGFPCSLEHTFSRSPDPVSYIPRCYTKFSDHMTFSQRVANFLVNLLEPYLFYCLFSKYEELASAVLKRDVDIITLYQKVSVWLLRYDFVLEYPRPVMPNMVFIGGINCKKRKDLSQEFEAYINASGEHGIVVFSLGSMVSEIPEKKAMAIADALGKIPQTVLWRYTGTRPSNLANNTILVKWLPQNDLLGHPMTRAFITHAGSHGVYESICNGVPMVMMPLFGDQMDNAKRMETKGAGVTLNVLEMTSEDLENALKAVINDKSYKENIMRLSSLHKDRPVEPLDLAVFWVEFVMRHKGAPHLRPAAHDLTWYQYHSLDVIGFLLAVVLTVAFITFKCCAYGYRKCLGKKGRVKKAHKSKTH
Experimental: (§1) Sigma-Aldrich (St Louis, MO, USA) provided the following constituents in the incubation mixture: 4-methylumbelliferone (4-MU), 4-methylumbelliferone-β-D-glucuronide (4-MUG), Tris-HCl, 7-hydroxycoumarin, and uridine-diphosphoglucuronic acid (UDPGA) (trisodium salt). All other compounds were of high-performance liquid chromatography (HPLC) grade or of the highest grade commercially available. For enzyme sources, recombinant UGT isoforms expressed in baculovirus-infected insect cells were purchased from BD Gentest Corp. (Woburn, MA, USA), including UGT1A1, 1A3, 1A6, 1A7, 1A8, 1A9, 1A10, 2B4, 2B7, 2B15, and 2B17.
(§2) 4-MU, a nonspecific probe substrate for all the UGT isoforms, was employed to investigate the inhibition of MEF and NIR towards the activity of UGT isoforms. The incubation and analytical methods have been previously described. […] MEF and NIR were dissolved in the DMSO to make a stock solution of 20 mM, and various concentrations of working solutions were prepared through dilution with DMSO. 4-MU was used as a non-selective substrate of UGTs. There was a 5-min pre-incubation step at 37 °C before the reaction was initiated by the addition of UDPGA. 4-MU and inhibitors were previously dissolved in DMSO, and the total concentration of DMSO was 1%. The reactions were continued at 37 °C for 120 min for UGT1A1, UGT1A3, UGT1A10, UGT2B4, UGT2B7, UGT2B15 and UGT2B17, 30 min for UGT1A6, UGT1A7, UGT1A8, and UGT1A9, respectively. Reactions were terminated by the addition of 100 μL acetonitrile with 7-hydroxycoumarin (100 μM) as internal standard. The incubation mixtures were then centrifuged at 12,000 r/min for 10 min. 2 μL supernatant was injected into the UPLC system for analysis. An ACQUITY UPLC System (Waters, Milford, MA, USA) equipped with UV detector was used to analyze the samples, and the separation of all the compounds were carried out using a ACQUITY UPLC® BEH C18 (2.1 × 100 mm, 1.7 μm Waters) at a flow rate of 0.2 mL/min and UV detector at 316 nm. The mobile phase was consisted of ultrapure water containing 0.5% formic acid (A) and acetonitrile (B). The following gradient condition was used: 0–3.5 min, 10–65% B; 3.5–4.0 min, 65% B; 4.0–9.0 min, 10% B. To calculate the standard curve 0.1–100 μM of 4-MUG was used through drawing the peak area ration of 4-MUG/internal standard towards the concentration range of 4-MUG. The curve was linear over this concentration range, with an r^2 value > 0.99.
(§3) The inhibition type and Kinetics were determined for the inhibition of NTR towards UGT1A3, UGT1A7 and UGT1A9. The glucuronidation velocity of 4-MU was determined at multiple concentrations of 4-MU and NTR. Dixon and Lineweaver–Burk plots were employed to determine the inhibition type, and the second plot of the slopes from the Lineweaver–Burk plot versus the compound concentrations was utilized to calculate the Ki value. The determination of IC50 was calculated using Probit analysis in SPSS11.5 (SPSS, Chicago, IL, USA). The Student’s t-test was adopted at a significance level of p < 0.05 to determine statistically significant differences among experimental groups.

UGT2B15 = target: T2, UGT2B15 (Homo sapiens, UniProt P54855); assay: as above; assay type: biochemical; details: pH 7.4, probe 4-methylumbelliferone (4-MU), 250 μM, 100 μM compound, 4-MU probe substrate, negative = activation
T2 construct: purchased BD Gentest Corp. (Woburn, MA, USA); host or cells: baculovirus-infected insect cells
T2 sequence (P54855 24-530): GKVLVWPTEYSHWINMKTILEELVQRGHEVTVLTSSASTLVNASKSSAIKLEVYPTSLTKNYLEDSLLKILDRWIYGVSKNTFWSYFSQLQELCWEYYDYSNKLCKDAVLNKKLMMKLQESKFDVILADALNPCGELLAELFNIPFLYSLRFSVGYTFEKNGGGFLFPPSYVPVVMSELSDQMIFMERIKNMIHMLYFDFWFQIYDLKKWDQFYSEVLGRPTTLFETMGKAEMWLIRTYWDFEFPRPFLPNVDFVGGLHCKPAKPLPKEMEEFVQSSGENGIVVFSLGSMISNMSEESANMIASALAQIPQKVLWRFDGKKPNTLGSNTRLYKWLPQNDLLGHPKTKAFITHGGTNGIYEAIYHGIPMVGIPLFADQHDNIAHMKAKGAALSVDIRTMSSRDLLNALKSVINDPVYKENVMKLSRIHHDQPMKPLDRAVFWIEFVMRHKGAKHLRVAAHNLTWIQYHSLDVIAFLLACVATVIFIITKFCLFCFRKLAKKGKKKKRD
Experimental: as §1, §2, §3

| inhibition at 30 min, 100 µM (UGT1A6) [%] | inhibition at 120 min, 100 µM (UGT2B15) [%] | SMILES |
| --- | --- | --- |
| 46.2 | 46.3 | O=c1c2cc(O)c(O)cc2oc2cc(O)cc(O)c12 [NTR, 1,3,6,7-tetrahydroxyxanthone] |
| 11.2 | 8.9 | O=c1c2cc(O)c(O)cc2oc2cc(O)c([C@@H]3O[C@H](CO)[C@@H](O)[C@H](O)[C@H]3O)c(O)c12 [MGF, 1,3,6,7-tetrahydroxyxanthone-C-2-β-D-glucoside] |
